Structures are written as SMILES.

For the assay, the target named is T1, Human IDO (Homo sapiens, UniProt P14902).
T1 construct: High control is Hela cells with IFNγ treatment; endogenous in cells; host or cells: HeLa cells treated with 25 ng/ml IFNγ
T1 sequence (P14902 whole entry): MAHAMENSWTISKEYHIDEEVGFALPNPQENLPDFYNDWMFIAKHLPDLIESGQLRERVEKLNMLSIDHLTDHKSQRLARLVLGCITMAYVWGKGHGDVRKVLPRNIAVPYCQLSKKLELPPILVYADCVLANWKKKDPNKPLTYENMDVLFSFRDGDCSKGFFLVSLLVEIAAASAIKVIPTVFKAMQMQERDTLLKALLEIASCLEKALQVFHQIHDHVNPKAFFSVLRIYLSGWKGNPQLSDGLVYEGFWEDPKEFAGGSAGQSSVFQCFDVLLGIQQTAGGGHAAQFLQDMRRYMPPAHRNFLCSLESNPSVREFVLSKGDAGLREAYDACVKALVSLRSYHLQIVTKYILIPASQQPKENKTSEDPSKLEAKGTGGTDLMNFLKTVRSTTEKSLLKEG
In words: HeLa cell IDO assay (IFNγ-treated cells, N-formylkynurenine by RapidFire/MS/MS). It counts as cell-based. Particulars: 25 ng/ml IFNγ, 200 μM Trp, 48 hours, class symbol.
What is called IC50 is the concentration needed to halve the response being measured. Higher therefore signals lower potency. For `O=C(Nc1ccc(Cl)cc1)C1(C2CCC(c3ccnc4ccncc34)CC2)CC1` (mixture of isomers) [Compound 29-6, 1-(4-(1,6-naphthyridin-4-yl)cyclohexyl)-N-(4-chlorophenyl) cyclopropane-1-carboxamide], the IC50 is under 100 nM.

In turn, `O=C(Nc1ccc(Cl)cc1)C1CC12CCC(c1ccnc3ccncc13)CC2` (racemic) [Compound 6-9, N-(4-chlorophenyl)-6-(1,6-naphthyridin-4-yl)spiro[2.5]octane-1-carboxamide] yielded an IC50 of under 100 nM.

Compound `O=C(Nc1ccc(Cl)cc1)C1CC12CCC(c1ccnc3ccc(F)cc13)CC2` (single isomer, unassigned) [Compound 1-10, N-(4-chlorophenyl)-6-(6-fluoroquinolin-4-yl)spiro[2.5]octane-1-carboxamide] yielded a half-inhibitory concentration (IC50) of under 100 nM.

`O=C(Nc1ccc(Cl)cc1)C1CC12CCC(c1ccnc3ccc(F)cc13)CC2` (single isomer, unassigned) [Compound 1-11, N-(4-chlorophenyl)-6-(6-fluoroquinolin-4-yl)spiro[2.5]octane-1-carboxamide] showed an IC50 of over 1000 nM.

On to `O=C(Nc1ccc(Br)cc1)[C@H]1C[C@]12CC[C@H](c1ccnc3ccc(F)cc31)CC2` (single isomer, unassigned) [Compound 4-4], for which the IC50 is under 100 nM.

As to `O=C(Nc1ccc(I)cc1)[C@H]1C[C@]12CC[C@H](c1ccnc3ccc(F)cc31)CC2` (single isomer, unassigned) [Compound 4-5], the IC50 is under 100 nM.

As for `N#Cc1ccc(NC(=O)[C@H]2C[C@]23CC[C@H](c2ccnc4ccc(F)cc42)CC3)cc1` (single isomer, unassigned) [Compound 4-6], the IC50 was under 100 nM.

The compound `O=C(Nc1ccc(Cl)cc1F)[C@H]1C[C@]12CC[C@H](c1ccnc3ccc(F)cc31)CC2` (single isomer, unassigned) [Compound 4-7] displayed an IC50 of under 100 nM.

`O=C(Nc1ccc(Br)cc1F)[C@H]1C[C@]12CC[C@H](c1ccnc3ccc(F)cc31)CC2` (single isomer, unassigned) [Compound 4-8] had an IC50 of under 100 nM.

As to `O=C(Nc1ccc(I)cc1F)[C@H]1C[C@]12CC[C@H](c1ccnc3ccc(F)cc31)CC2` (single isomer, unassigned) [Compound 4-9], the IC50 was under 100 nM.

Take `O=C(Nc1ccc(Cl)cc1)C1CC12CCC(c1ccnc3ccncc13)CC2` (single isomer, unassigned) [Compound 7-6, N-(4-chlorophenyl)-6-(1,6-naphthyridin-4-yl)spiro[2.5]octane-1-carboxamide]: the IC50 is under 100 nM.

With `O=C(Nc1ccc(Cl)cc1)C1CC12CCC(c1ccnc3ccncc13)CC2` (single isomer, unassigned) [Compound 7-7, N-(4-chlorophenyl)-6-(1,6-naphthyridin-4-yl)spiro[2.5]octane-1-carboxamide], the IC50 was over 1000 nM.

In turn, `O=C(NC1CC12CCC(c1ccnc3ccc(F)cc13)CC2)c1ccc(Cl)cc1` (single isomer, unassigned) [Compound 9-4, 4-chloro-N-(6-(6-fluoroquinolin-4-yl)spiro[2.5]octan-1-yl)benzamide] returned an IC50 of under 100 nM.

`O=C(NC1CC12CCC(c1ccnc3ccc(F)cc13)CC2)c1ccc(Cl)cc1` (single isomer, unassigned) [Compound 9-5, 4-chloro-N-(6-(6-fluoroquinolin-4-yl)spiro[2.5]octan-1-yl)benzamide] returned an IC50 of over 1000 nM.

The compound `CC1(C(=O)Nc2ccc(Cl)cc2)CC12CCC(c1ccnc3ccc(F)cc13)CC2` (single isomer, unassigned) [Compound 11-5, N-(4-chlorophenyl)-6-(6-fluoroquinolin-4-yl)-1-methylspiro[2.5]octane-1-carboxamide] yielded a half-maximal inhibitory concentration (IC50) of under 100 nM.

Turning to `CC1(C(=O)Nc2ccc(Cl)cc2)CC12CCC(c1ccnc3ccc(F)cc13)CC2` (single isomer, unassigned) [Compound 11-6, N-(4-chlorophenyl)-6-(6-fluoroquinolin-4-yl)-1-methylspiro[2.5]octane-1-carboxamide], the IC50 is under 100 nM.

(Values after US11180497B2 (ANGEX PHARMACEUTICAL, INC., priority 2017, dated 2021).)
